Test results from US20040242650A1, “Extended dosing regimen” (priority 2003, published 2004).
Marks after values point to notes of the source that are not given here.

Experiments:
[1] = tested on: MDA-MB-468 breast subcutaneous flank xenografts; assay: MDA-MB-468 breast flank xenograft model; format: in vivo, female nude mice; settings: for Tumor Volume Day 38: mean ± SEM; for % ILS: median, time to 1 cc vs vehicle; for % T/C Day 38: treated vs vehicle
Method: (§1) Efficacy of N-[2-[(4-hydroxyphenyl)amino]-3-pyridyl]-4-methoxybenzenesulfonamide was tested in Calu-6 NSCL, MDA-MB-468 breast and HT-29 colon carcinoma xenografts grown in nude mice. The objectives were determination of the efficacy of N-[2-[(4-hydroxyphenyl)amino]-3-pyridyl]-4-methoxybenzenesulfonamide as a single agent and in combination with cisplatin in the Calu-6 NSCL flank xenograft model; determination the efficacy of N-[2-[(4-hydroxyphenyl)amino]-3-pyridyl]-4-methoxybenzenesulfonamide as a single agent and in combination with docetaxel in the MDA-MB 468 breast flank xenograft model; determination of the efficacy of N-[2-[(4-hydroxyphenyl)amino]-3-pyridyl]-4-methoxybenzenesulfonamide as a single agent and in combination with 5-FU in the HT-29 colon flank xenograft model; and comparison the efficacy of N-[2-[(4-hydroxyphenyl)amino]-3-pyridyl]-4-methoxybenzenesulfonamide administered on 2 different schedules (q.d. vs b.i.d.) in the Calu-6 and HT-29 xenogaft model.
(§2) Following inoculation of tumor cells, tumors were passaged three times in mice before using the fragments to generate single cell suspensions. Multiple animals were used as donors. Single cell suspensions were generated by homogenizing the minced tumor tissue in RPMI 1640 media. Cell suspensions were washed three times to remove debris and other foreign materials. Viable cells were counted by trypan blue exclusion technique using a hemocytometer. Mice were injected subcutaneously with 0.5 ml of the cell suspension containing 1×10^6 cells.
Efficacy of N-[2-[(4-hydroxyphenyl)amino]-3-pyridyl]-4-methoxybenzenesulfonamide in the MDA-MB-468 Breast Flank Xenograft Model. Tumor cells derived from serially passaged tumor fragments were inoculated s.c. in female nude mice on day 0. On day 10, mice bearing established tumors were size matched at ˜231 mm^3 and placed into the following groups:
(§3) N-[2-[(4-hydroxyphenyl)amino]-3-pyridyl]-4-methoxybenzenesulfonamide—100, and 75 mg/kg/day (p.o., q.d., 5 days on, 5 days off ×2)
N-[2-[(4-hydroxyphenyl)amino]-3-pyridyl]-4-methoxybenzenesulfonamide—50 and 0 mg/kg/day (p.o., q.d. ×21)
Docetaxel—40, 33.3, 16.7 and 0 mg/kg/day (i.v., qd ×1)

[2] = tested on: Calu-6 lung subcutaneous flank xenografts; assay: Calu-6 flank xenograft model; format: in vivo, male nude mice; settings: for Tumor Volume Day 38: mean ± SEM; for % ILS: median, time to 1 cc vs vehicle; for % T/C Day 38: treated vs vehicle
Method: as §1, §2
Tumor cells were inoculated s.c. into male nude mice on day 0. On day 10, mice bearing established tumors were size matched at ˜233 mm^3 and placed into the following groups:
as §3
N-[2-[(4-hydroxyphenyl)amino]-3-pyridyl]-4-methoxybenzenesulfonamide—50 and 0 mg/kg/day (p.o., q.d. ×21 or p.o., b.i.d. ×21)
Cisplaitn—20, 10, 8 and 0 mg/kg/day (ip, qd ×1)
Combination Therapy—100/10, 75/10, 100/8 mg/kg/day (p.o., q.d., 5 days on, 5 days off ×2/ip, qd ×1), 50/10 mg/kg/day (p.o., q.d., ×21/ ip, qd ×1)

[3] = tested on: HT-29 colon subcutaneous flank xenografts; assay: HT-29 flank xenograft model; format: in vivo, nude mice; settings: for Tumor Volume Day 38: mean ± SEM; for % ILS: median, time to 1 cc vs vehicle; for % T/C Day 38: treated vs vehicle
Method: as §1, §2
Tumor cells derived from serially passaged tumor fragments were inoculated s.c. in female nude mice on day 0. On day 10, mice bearing established tumors were size matched at ˜236 mm^3 and placed into the following groups:
1. N-[2-[(4-hydroxyphenyl)amino]-3-pyridyl]-4-methoxybenzenesulfonamide—100, and 75 mg/kg/day (p.o., q.d., 5 days on, 5 days off ×2)
2. N-[2-[(4-hydroxyphenyl)amino]-3-pyridyl]-4-methoxybenzenesulfonamide—50 and 0 mg/kg/day (p.o., q.d. ×21 or p.o., b.i.d. ×21)
Combination Therapy—100/30, 75/30, mg/kg/day (p.o., q.d., 5 days on, 5 days off ×2/ip, qd ×1), 50/10 mg/kg/day (p.o., q.d., ×21/ip, qd ×1).

[4] = Dose limiting toxicity in patients, 21-day QD or BID dosing; format: in vivo
Method: A total of 43 patients were enrolled in the study. The tumor types were as follows: colorectal (23), sarcoma (5), mesothelioma (3), salivary gland (2), endometrial (2), unknown (2), hepatoma (1), melanoma (1), renal cell (1), lung (1), ovary (1), and granulosa cell (1). Patients were treated once a day (QD) or twice a day (BID) for 21 days with N-[2-[(4-hydroxyphenyl)amino]-3-pyridyl]-4-methoxybenzenesulfonamide followed by a 7-day period where no drug was received. Doses were escalated by 50 mg/day (25 mg BID). Three patients were initially treated at each dose level. […] If additional patients experienced dose-limiting toxicity, on occasion the dose level was expanded to nine patients to further assess tolerability. Response assessment was performed every two cycles.

[5] = 75 mg/kg/day p.o., q.d., (5 days on, 5 days off) x2
[6] = 100 mg/kg/day p.o., q.d., (5 days on, 5 days off) x2
[7] = 100 and 75 mg/kg/day, 5 days on, 5 days off for 2 cycles

## COc1ccc(S(=O)(=O)Nc2cccnc2Nc2ccc(O)cc2)cc1 [N-[2-[(4-hydroxyphenyl)amino]-3-pyridyl]-4-methoxybenzenesulfonamide]
[1]; 50 mg/kg/day p.o., q.d x21
  Tumor Volume Day 38: 1244 ± 59 mm^3
  % ILS: 41*** %
  % T/C Day 38: 46*** %
[1]; [5]
  Tumor Volume Day 38: 851 ± 55 mm^3
  % ILS: 52*** %
  % T/C Day 38: 33*** %
[1]; [6]
  Tumor Volume Day 38: 638 ± 48 mm^3
  % ILS: 78*** %
  % T/C Day 38: 25*** %
[1]; 100 and 75 mg/kg/day 5 days on, 5 days off for 2 cycles, 50 mg/kg/day daily
  antitumor activity as a single agent: dose-dependent antitumor activity
[1]; in combination with docetaxel
  efficacy of combination compared to single agents alone (summary): equal to or greater than additive efficacy
[1]; in combination with docetaxel at 33.3 mg/kg/day, all three doses tested
  response in combination with docetaxel: greater than additive responses
[1]; single agent
  efficacy as a single agent (summary): dose-dependent efficacy
[2]; 50 mg/kg/day p.o., b.i.d x21
  Tumor Volume Day 38: 1534 ± 47 mm^3
  % ILS: 58*** %
  % T/C Day 38: 56*** %
[2]; 50 mg/kg/day p.o., q.d x21
  Tumor Volume Day 38: 1455 ± 65 mm^3
  % ILS: 58*** %
  % T/C Day 38: 54*** %
[2]; [5]
  Tumor Volume Day 38: 1406 ± 65 mm^3
  % ILS: 58*** %
  % T/C Day 38: 50*** %
[2]; [6]
  Tumor Volume Day 38: 1022 ± 48 mm^3
  % ILS: 65*** %
  % T/C Day 38: 37*** %
[2]; [7]
  antitumor activity as a single agent: significant antitumor activity
[2]; in combination with cisplatin
  efficacy of combination compared to single agents alone (summary): equal to or greater than additive efficacy
[2]; in combination with cisplatin, all three doses tested
  response in combination with cisplatin: greater than additive responses
[2]; q.d. or b.i.d. for 21 days
  efficacy q.d. vs b.i.d. (summary): equal efficacy
[2]; single agent
  efficacy as a single agent (summary): dose-dependent efficacy
[3]; 50 mg/kg/day p.o., b.i.d x21
  Tumor Volume Day 38: 1158 ± 62 mm^3
  % ILS: 36*** %
  % T/C Day 38: 51*** %
[3]; 50 mg/kg/day p.o., q.d x21
  Tumor Volume Day 38: 1244 ± 55 mm^3
  % ILS: 36*** %
  % T/C Day 38: 55*** %
[3]; [5]
  Tumor Volume Day 38: 942 ± 46 mm^3
  % ILS: 50*** %
  % T/C Day 38: 43*** %
[3]; [6]
  Tumor Volume Day 38: 619 ± 40 mm^3
  % ILS: 75*** %
  % T/C Day 38: 28*** %
[3]; [7]
  antitumor activity as a single agent: significant antitumor activity
[3]; in combination with 5-FU
  efficacy of combination compared to single agents alone (summary): equal to or greater than additive efficacy
[3]; in combination with 5-FU at 30 mg/kg/day, at the higher doses
  response in combination with 5-FU: additive responses
[3]; q.d. or b.i.d. for 21 days
  efficacy q.d. vs b.i.d. (summary): equal efficacy
[3]; single agent
  efficacy as a single agent (summary): dose-dependent efficacy
[4]; patients receiving up to 150 mg of drug per day
  dose limiting toxicity: No dose limiting toxicity
[4]; patients, QD or BID for 21 days followed by 7 days off
  dose limiting toxicities observed: ileus, peripheral neuropathy, fatigue, and abdominal pain
